target: T1, ATR/ATRIP (Homo sapiens, UniProt Q13535); assay: ATR/ATRIP kinase assay (TR-FRET, p53 phosphorylation); assay type: biochemical; details: Table 1, class symbols; read-out: ATR-ATRIP IC50
T1 construct: human ATR, full length, GenBank ID: NM_001184.3; p53: Sf21 insect cells
Description: ATR/ATRIP Kinase Assay—Measurement of ATR/ATRIP Inhibition
The IC50 value was determined by an ATR/ATRIP enzymatic assay. The assay comprises two steps: the enzymatic reaction and the detection step. First, a mixture of ATR/ATRIP protein (Ataxia Telangiectasia and Rad3-related protein/ATR interacting protein), the compound in question at different concentrations, p53 as substrate protein and adenosine triphosphate (ATP) are incubated in assay buffer. ATR phosphorylates p53 at Ser15 and other residues. The amount of phosphorylated p53 is then detected using specific antibodies and the TR-FRET assay technology.
In detail: The ATR/ATRIP enzymatic assay is performed as a TR-FRET-(HTRF™, Cisbio Bioassays) based 384-well assay. In a first step, purified human recombinant ATR/ATRIP (human ATR, full length, GenBank ID: NM_001184.3, and human ATRIP, full length, GenBank ID AF451323.1, co-expressed in a mammalian cell line) is incubated in assay buffer for 15 minutes at 22° C. with test compound at different concentrations or without test compound (as a negative control). The assay buffer contains 25 mM HEPES pH 8.0, 10 mM Mg(CH3COO)2, 1 mM MnCl2, 0.1% BSA, 0.01% Brij® 35, and 5 mM dithiothreitol (DTT). […] Then, in a second step, purified human recombinant cmyc-tagged p53 (human p53, full length, GenBank ID: BC003596, expressed in Sf21 insect cells) and ATP are added and the reaction mixture is incubated for 25-35 minutes, typically 25 minutes, at 22° C. The pharmacologically relevant assay volume is 5 μl. The final concentrations in the assay during incubation of the reaction mixture are 0.3-0.5 nM, typically 0.3 nM, ATR/ATRIP, 50 nM p53, and 0.5 μM ATP. The enzymatic reaction is stopped by the addition of EDTA. […] Following signal development for 2 h the plates are analyzed in an EnVision (PerkinElmer) microplate reader using the TRF mode with laser excitation. […] Data are processed employing the Genedata Screener software. In particular, IC50 values are determined in the usual manner by fitting a dose-response curve to the data points using nonlinear regression analysis.

T1 sequence (Q13535 whole entry): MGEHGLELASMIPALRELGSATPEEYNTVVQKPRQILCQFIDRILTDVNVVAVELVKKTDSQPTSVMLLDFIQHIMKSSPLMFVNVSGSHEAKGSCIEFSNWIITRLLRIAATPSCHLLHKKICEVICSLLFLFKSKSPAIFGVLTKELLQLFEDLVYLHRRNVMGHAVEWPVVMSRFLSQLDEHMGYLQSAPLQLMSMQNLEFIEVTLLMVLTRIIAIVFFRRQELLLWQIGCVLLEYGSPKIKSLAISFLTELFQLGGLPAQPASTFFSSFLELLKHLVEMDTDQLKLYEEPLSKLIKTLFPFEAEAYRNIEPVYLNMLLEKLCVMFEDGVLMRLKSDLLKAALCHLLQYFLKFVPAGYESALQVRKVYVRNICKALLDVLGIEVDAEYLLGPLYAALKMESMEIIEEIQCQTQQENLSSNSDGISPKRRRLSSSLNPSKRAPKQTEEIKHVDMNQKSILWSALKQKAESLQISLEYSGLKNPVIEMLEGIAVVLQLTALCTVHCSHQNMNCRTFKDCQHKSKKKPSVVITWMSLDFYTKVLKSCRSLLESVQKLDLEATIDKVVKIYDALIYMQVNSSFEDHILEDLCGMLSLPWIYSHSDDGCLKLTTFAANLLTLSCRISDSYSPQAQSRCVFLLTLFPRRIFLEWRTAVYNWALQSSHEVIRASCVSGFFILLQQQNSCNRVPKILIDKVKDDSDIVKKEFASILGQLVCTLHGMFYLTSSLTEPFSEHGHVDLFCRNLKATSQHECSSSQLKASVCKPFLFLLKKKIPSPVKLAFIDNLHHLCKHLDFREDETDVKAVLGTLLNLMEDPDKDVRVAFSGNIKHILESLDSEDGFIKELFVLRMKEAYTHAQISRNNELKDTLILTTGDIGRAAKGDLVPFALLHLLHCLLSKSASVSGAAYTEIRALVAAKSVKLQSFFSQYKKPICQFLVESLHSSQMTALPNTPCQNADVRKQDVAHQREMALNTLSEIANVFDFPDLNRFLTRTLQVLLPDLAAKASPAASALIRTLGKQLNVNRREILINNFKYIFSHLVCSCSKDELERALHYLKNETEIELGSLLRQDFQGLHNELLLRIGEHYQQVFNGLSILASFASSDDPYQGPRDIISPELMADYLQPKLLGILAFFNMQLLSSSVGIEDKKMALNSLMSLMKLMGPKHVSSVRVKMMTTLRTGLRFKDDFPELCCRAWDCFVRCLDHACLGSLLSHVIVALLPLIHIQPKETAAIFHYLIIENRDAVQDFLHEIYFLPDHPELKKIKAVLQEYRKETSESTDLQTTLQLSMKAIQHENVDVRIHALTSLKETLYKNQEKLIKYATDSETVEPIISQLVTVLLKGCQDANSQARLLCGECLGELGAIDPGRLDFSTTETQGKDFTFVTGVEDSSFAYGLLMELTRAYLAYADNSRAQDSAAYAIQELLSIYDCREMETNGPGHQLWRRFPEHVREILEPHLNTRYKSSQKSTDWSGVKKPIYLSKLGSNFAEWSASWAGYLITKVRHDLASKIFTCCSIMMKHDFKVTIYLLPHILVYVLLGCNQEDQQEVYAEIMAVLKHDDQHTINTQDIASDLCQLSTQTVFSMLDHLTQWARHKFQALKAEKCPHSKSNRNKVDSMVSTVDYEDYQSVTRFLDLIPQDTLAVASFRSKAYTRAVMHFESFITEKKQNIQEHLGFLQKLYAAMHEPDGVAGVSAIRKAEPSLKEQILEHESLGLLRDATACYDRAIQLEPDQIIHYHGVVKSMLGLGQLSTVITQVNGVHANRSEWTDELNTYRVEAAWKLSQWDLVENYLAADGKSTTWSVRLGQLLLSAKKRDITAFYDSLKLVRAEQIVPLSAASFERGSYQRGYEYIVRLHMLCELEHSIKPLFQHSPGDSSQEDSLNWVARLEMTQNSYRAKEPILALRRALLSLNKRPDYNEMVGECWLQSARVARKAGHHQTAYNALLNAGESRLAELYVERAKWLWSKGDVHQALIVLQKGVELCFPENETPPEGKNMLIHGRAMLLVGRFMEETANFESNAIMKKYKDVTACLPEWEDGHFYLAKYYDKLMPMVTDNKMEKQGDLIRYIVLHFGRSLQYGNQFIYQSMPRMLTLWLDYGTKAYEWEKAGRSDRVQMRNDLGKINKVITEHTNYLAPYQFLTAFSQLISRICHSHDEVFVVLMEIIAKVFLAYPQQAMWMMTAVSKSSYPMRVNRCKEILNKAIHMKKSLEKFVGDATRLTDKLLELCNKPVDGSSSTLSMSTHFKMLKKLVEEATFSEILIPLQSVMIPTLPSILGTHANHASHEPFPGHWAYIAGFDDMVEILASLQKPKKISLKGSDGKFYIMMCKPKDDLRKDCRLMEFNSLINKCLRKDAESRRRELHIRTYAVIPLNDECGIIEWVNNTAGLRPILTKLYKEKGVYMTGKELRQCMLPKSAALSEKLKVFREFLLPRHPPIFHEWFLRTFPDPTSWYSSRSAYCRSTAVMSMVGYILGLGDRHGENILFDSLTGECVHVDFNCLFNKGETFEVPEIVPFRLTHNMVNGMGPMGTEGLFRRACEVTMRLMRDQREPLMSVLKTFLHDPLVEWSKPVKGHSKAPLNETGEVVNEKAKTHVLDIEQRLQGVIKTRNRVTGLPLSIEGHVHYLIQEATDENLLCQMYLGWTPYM
T1 sequence (Q8WXE1 whole entry partner): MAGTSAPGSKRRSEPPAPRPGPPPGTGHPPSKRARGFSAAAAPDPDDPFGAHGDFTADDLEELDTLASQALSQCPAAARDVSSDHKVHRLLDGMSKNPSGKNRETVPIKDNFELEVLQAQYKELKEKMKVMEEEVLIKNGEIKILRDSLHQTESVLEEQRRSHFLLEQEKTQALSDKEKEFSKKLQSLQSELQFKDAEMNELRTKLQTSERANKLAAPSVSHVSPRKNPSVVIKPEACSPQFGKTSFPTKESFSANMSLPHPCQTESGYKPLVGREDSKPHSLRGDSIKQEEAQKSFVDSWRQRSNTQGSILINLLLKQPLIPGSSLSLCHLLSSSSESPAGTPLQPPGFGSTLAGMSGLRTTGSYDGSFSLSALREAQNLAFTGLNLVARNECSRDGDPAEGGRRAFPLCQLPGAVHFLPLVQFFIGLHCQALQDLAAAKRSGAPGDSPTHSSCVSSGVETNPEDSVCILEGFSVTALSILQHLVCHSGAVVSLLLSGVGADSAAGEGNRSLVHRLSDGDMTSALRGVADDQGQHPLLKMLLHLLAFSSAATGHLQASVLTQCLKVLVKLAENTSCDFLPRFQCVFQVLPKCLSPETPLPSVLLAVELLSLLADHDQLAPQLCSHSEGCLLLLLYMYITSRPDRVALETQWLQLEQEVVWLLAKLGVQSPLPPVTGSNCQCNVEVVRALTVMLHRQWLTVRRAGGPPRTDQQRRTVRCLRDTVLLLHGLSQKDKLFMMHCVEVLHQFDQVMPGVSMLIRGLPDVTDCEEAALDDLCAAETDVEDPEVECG

SMILES	IC50 [nM]
C[C@@H]1COC[C@H]2COc3c(nc(-c4c(F)ncc5c4ccn5C)nc3C(C)(C)S(C)(=O)=O)N21 [A38, (5R,8aS)-3-(5-fluoro-1-methyl-1H-pyrrolo[2,3-c]pyridin-4-yl)-1-(1-methanesulfonyl-1-methyl-ethyl)-5-methyl-5,6,8a,9-tetrahydro-8H-7,10-dioxa-2,4,4b-triaza-phenanthrene]	500 to 30000
C[C@@H]1COC[C@H]2COc3c(nc(Nc4nc[nH]n4)nc3C(C)(C)S(C)(=O)=O)N21 [A79, [(5R,8aS)-1-(1-methanesulfonyl-1-methyl-ethyl)-5-methyl-5,6,8a,9-tetrahydro-8H-7,10-dioxa-2,4,4b-triaza-phenanthren-3-yl]-(1H[1,2,4]triazol-3-yl)-amine]	10 to 100
CNCc1c[nH]c2ncc(F)c(-c3nc4c(c(C(C)(C)O)n3)OC[C@@H]3COC[C@@H](C)N43)c12 [A5, 2-[(5R,8aS)-3-(5-Fluoro-3-methylaminomethyl-1H-pyrrolo[2,3-b]pyridin-4-yl)-5-methyl-5,6,8a,9-tetrahydro-8H-7,10-dioxa-2,4,4b-triaza-phenanthren-1-yl]-propan-2-ol]	10 to 100
C[C@@H]1COC[C@H]2COc3c(nc(C(=O)N4CC[C@@H](N)C4)nc3C(C)(C)S(C)(=O)=O)N21 [A51, ((R)-3-amino-pyrrolidin-1-yl)-[(4bS,6R)-1-(1-methanesulfonyl-1-methyl-ethyl)-5-methyl-5,6,8a,9-tetrahydro-8H-7,10-dioxa-2,4,4b-triaza-phenanthren-3-yl]-methanone]	500 to 30000
C[C@@H]1COC[C@H]2COc3c(Cn4cc(C(=O)O)nn4)nc(-c4ccnc5[nH]ccc45)nc3N21 [A4, 1-[(5R,8aS)-5-Methyl-3-(1H-pyrrolo[2,3-b]pyridin-4-yl)-5,6,8a,9-tetrahydro-8H-7,10-dioxa-2,4,4b-triaza-phenanthren-1-ylmethyl]-1H-[1,2,3]triazole-4-carboxylic Acid]	1 to 10
C[C@@H]1COC[C@H]2COc3c(nc(C(=O)N4CC[C@@H](O)C4)nc3C(C)(C)S(C)(=O)=O)N21 [A49, ((R)-3-hydroxy-pyrrolidin-1-yl)-[(4bS,6R)-1-(1-methanesulfonyl-1-methyl-ethyl)-5-methyl-5,6,8a,9-tetrahydro-8H-7,10-dioxa-2,4,4b-triaza-phenanthren-3-yl]-methanone]	500 to 30000
COC(=O)c1cn(Cc2nc(-c3ccnc4c3ccn4C)nc3c2OC[C@@H]2COC[C@@H](C)N32)nn1 [A19, 1-[(5R,8aS)-5-Methyl-3-(1-methyl-1H-pyrrolo[2,3-b]pyridin-4-yl)-5,6,8a,9-tetrahydro-8H-7,10-dioxa-2,4,4b-triaza-phenanthren-1-ylmethyl]-1H[1,2,3]triazole-4-carboxylic Acid Methyl Ester]	100 to 500
COC(=O)c1cn(Cc2nc(-c3ccnc4[nH]ccc34)nc3c2OC[C@@H]2COC[C@@H](C)N32)nn1 [A18, 1-[(5R,8aS)-5-Methyl-3-(1H-pyrrolo[2,3-b]pyridin-4-yl)-5,6,8a,9-tetrahydro-8H-7,10-dioxa-2,4,4b-triaza-phenanthren-1-ylmethyl]-1H-[1,2,3]triazole-4-carboxylic Acid Methyl Ester]	1 to 10
C[C@@H]1COC[C@H]2COc3c(nc(-c4cccc5c4CS(=O)(=O)N5)nc3C(C)(C)S(C)(=O)=O)N21 [A87, 4-[(10S,14R)-6-(2-methanesulfonylpropan-2-yl)-14-methyl-8,12-dioxa-1,3,5-triazatricyclo[8.4.0.0^{2,7}]tetradeca-2,4,6-trien-4-yl]-1,3-dihydro-2lambda6,1-benzothiazole-2,2-dione]	10 to 100
C[C@H](O)CNC(=O)c1nc2c(c(C(C)(C)S(C)(=O)=O)n1)OC[C@@H]1COC[C@@H](C)N21 [A54, (4bS,6R)-1-(1-methanesulfonyl-1-methyl-ethyl)-5-methyl-5,6,8a,9-tetrahydro-8H-7,10-dioxa-2,4,4b-triaza-phenanthrene-3-carboxylic Acid ((S)-2-hydroxy-propyl)-amide]	500 to 30000
C[C@@H]1COC[C@H]2COc3c(nc(NCc4cn[nH]c4)nc3C(C)(C)S(C)(=O)=O)N21 [A65, [(5R,8aS)-1-(1-methanesulfonyl-1-methyl-ethyl)-5-methyl-5,6,8a,9-tetrahydro-8H-7,10-dioxa-2,4,4b-triaza-phenanthren-3-yl]-(1H-pyrazol-4-ylmethyl)-amine]	500 to 30000
C[C@@H]1COC[C@H]2COc3c(nc(-c4ccc5ncccc5c4)nc3C(C)(C)S(C)(=O)=O)N21 [A77, (5R,8aS)-1-(1-methanesulfonyl-1-methyl-ethyl)-5-methyl-3-quinolin-6-yl-5,6,8a,9-tetrahydro-8H-7,10-dioxa-2,4,4b-triaza-phenanthrene]	10 to 100
C[C@@H]1COC[C@H]2COc3c(nc(Oc4cn[nH]c4)nc3C(C)(C)S(C)(=O)=O)N21 [A80, (5R,8aS)-1-(1-methanesulfonyl-1-methyl-ethyl)-5-methyl-3-(1H-pyrazol-4-yloxy)-5,6,8a,9-tetrahydro-8H-7,10-dioxa-2,4,4b-triaza-phenanthrene]	100 to 500
C[C@@H]1COC[C@H]2COc3c(nc(-c4ccc5ccncc5c4)nc3C(C)(C)S(C)(=O)=O)N21 [A76, (5R,8aS)-3-isoquinolin-7-yl-1-(1-methanesulfonyl-1-methyl-ethyl)-5-methyl-5,6,8a,9-tetrahydro-8H-7,10-dioxa-2,4,4b-triaza-phenanthrene]	10 to 100
C[C@@H]1COC[C@H]2COc3c(nc(-c4ccc5c(c4)CCNC5)nc3C(C)(C)S(C)(=O)=O)N21 [A71, (5R,8aS)-1-(1-methanesulfonyl-1-methyl-ethyl)-5-methyl-3-(1,2,3,4-tetrahydro-isoquinolin-6-yl)-5,6,8a,9-tetrahydro-8H-7,10-dioxa-2,4,4b-triaza-phenanthrene]	100 to 500
C[C@@H]1COC[C@H]2COc3c(nc(C(=O)Nc4ncccn4)nc3C(C)(C)S(C)(=O)=O)N21 [A58, (4bS,6R)-1-(1-methanesulfonyl-1-methyl-ethyl)-5-methyl-5,6,8a,9-tetrahydro-8H-7,10-dioxa-2,4,4b-triaza-phenanthrene-3-carboxylic Acid pyrimidin-2-ylamide]	500 to 30000
C[C@@H]1COC[C@H]2COc3c(nc(-n4cc(C(N)=O)cn4)nc3C(C)(C)S(C)(=O)=O)N21 [A68, 1-[(S)-1-(1-methanesulfonyl-1-methyl-ethyl)-5-(R)-methyl-5,6,8a,9-tetrahydro-8H-7,10-dioxa-2,4,4b-triaza-phenanthren-3-yl]-1H-pyrazole-4-carboxylic Acid Amide]	500 to 30000
CC(CO)NC(=O)c1nc2c(c(C(C)(C)S(C)(=O)=O)n1)OC[C@@H]1COC[C@@H](C)N21 (stereo partly drawn) [A56, (4bS,6R)-1-(1-methanesulfonyl-1-methyl-ethyl)-5-methyl-5,6,8a,9-tetrahydro-8H-7,10-dioxa-2,4,4b-triaza-phenanthrene-3-carboxylic Acid (2-hydroxy-1-methyl-ethyl)-amide]	500 to 30000
C[C@@H]1COC[C@H]2COc3c(nc(-c4cccc(CO)c4)nc3C(C)(C)S(C)(=O)=O)N21 [A41, {3-[(5R,8aS)-1-(1-methanesulfonyl-1-methyl-ethyl)-5-methyl-5,6,8a,9-tetrahydro-8H-7,10-dioxa-2,4,4b-triaza-phenanthren-3-yl]-phenyl}-methanol]	< 1

Source: patent US10570149B2, “Tricyclic heterocylic derivatives” (MERCK PATENT GMBH, priority 2016, dated 2020)
